From patent publication US20230138327A1, “COMPOSITIONS AND METHODS CONTAINING REDUCED NICOTINAMIDE RIBOSIDE FOR PREVENTION AND TREATMENT OF PANCREATIC DISEASES AND CONDITIONS” (SOCIETE DES PRODUITS NESTLE S.A., priority 2020, published 2023)

Assays:
AML12 cells = experiment: Pathway of NRH-induced NAD+ synthesis: intracellular metabolites and pathway inhibitors; type: cell-based
Description: FIG. 4. NRH leads to NAD+ biosynthesis through an adenosine kinase dependent path. AML12 cells were treated with an adenosine kinase inhibitor (5-IT; […]) for 1 hour prior to NRH treatment at the doses indicated. Then, 1 hour later, acidic extracts were obtained to measure NAD levels. All values in the figure are expressed as mean+/−SEM of 3 independent experiments. * indicates statistical difference at p<0.05 vs. the respective vehicle treated group.
Levels of NRH and other NAD-related metabolites in biological samples were obtained by using a cold liquid-liquid extraction using a mixture of methanol:water:chloroform in 5:3:5 (v/v), from which the polar phase was recovered for hydrophilic interaction ultra-high performance liquid chromatography mass spectrometry (UHPLC-MS) analysis. The UHPLC consisted of a binary pump, a cooled autosampler, and a column oven (DIONEX Ultimate 3000 UHPLC+ Focused, Thermo Scientific), connected to a triple quadrupole spectrometer (TSQ Vantage, Thermo Scientific) equipped with a heated electrospray ionisation (H-ESI) source. Of each sample, 2 μL were injected into the analytical column (2.1 mm×150 mm, 5 μm pore size, 200 Å HILICON iHILIC®-Fusion(P)), guarded by a pre-column (2.1 mm×20 mm, 200 Å HILICON iHILIC®-Fusion(P) Guard Kit) operating at 35° C. The mobile phase (10 mM ammonium acetate at pH 9, A, and acetonitrile, B) was pumped at 0.25 mL/min flow rate over a linear gradient of decreasing organic solvent (0.5-16 min, 90-25% B), followed by re-equilibration for a total run time of 30 min. The MS operated in positive mode at 3500 V with multiple reaction monitoring (MRM). The software Xcalibur v4.1.31.9 (Thermo Scientific) was used for instrument control, data acquisition and processing. Retention time and mass detection was confirmed by authentic standards.
A path in which NRH would be converted to NMNH, then to NADH and this would be finally oxidized to NAD+.
In order to understand the exact path by which NRH synthesizes NAD+, we initially evaluated whether NRH, could be transported into the cell by equilibrative nucleoside transporters (ENTs).
The action of NRH was also NAMPT-independent, based on experiments using FK866, a NAMPT inhibitor. If NRH led to NAD+ synthesis via the formation of NMNH, this hypothetical path would require the phosphorylation of NRH into NMNH. Given the essential and rate-limiting role of NRK1 in NR phosphorylation, we wondered whether the ability of NRH to boost NAD+ levels was NRK1 dependent. To answer this question, we evaluated NRH action in primary hepatocytes from either control or NRK1 knockout (NRK1KO) mice. […] Further, they rule out the possibility that NRH-induced NAD+ […] is driven by NRH oxidation into NR.
Considering the molecular structure of NRH, we reasoned that an alternative nucleoside kinase could be responsible for the phosphorylation of NRH. […] The role of AK in NRH-mediated NAD+ synthesis was confirmed using a second, structurally different, AK inhibitor, ABT-702. Metabolomic analyses further confirmed that upon inhibition of AK, the generation of NMNH, NADH and NAD+ was fully blunted, even if NRH was effectively entering the cell.
As a follow-up step, NMNAT enzymes could catalyze the transition from NMNH to NADH. […] Yet, part of the NRH action remained after gallotannin treatment when NRH was used at maximal doses.

INS-1E cells [1] = experiment: Inflammatory cytokine (IL-1 b)-induced pancreatic β-cell death, cell viability; type: cell-based; details: IL-1 b 0.25 ng/ml, 24 hours, NRH 0.1 mM
Description: INS-1E cells were treated with Interleukin 1 b (IL-1 b; 0.25 ng/ml) for 24 hrs in the presence or absence of NRH (0.1 mM). PBS was used as vehicle for NRH. After 24 hrs, cell viability was evaluated by luminescence using a commercial kit (Cell Title-Glow; Promega). All results are expressed as mean+/−SEM of n=6 experiments. * indicates P<0.05 vs. the respective vehicle treated group.
INS-1E cells were treated with Interleukin 1 b (IL-1 b; 0.25 ng/ml) for 24 hours in the presence or absence of NRH (0.1 mM). PBS was used as vehicle for NRH. After 24 hours, cell viability was evaluated by luminescence using a commercial kit (Cell Title-Glow; Promega).

mice [2] = experiment: Tissue NAD+ levels in mice after intraperitoneal injection; type: in vivo; details: IP 500 mg/kg, after 1 h
Description: The above results prompted us to test whether NRH could act as an effective NAD+ precursor in vivo. For this, we first intraperitoneally (IP) injected mice with either NR or NRH (500 mg/kg). […] Importantly, NRH was detectable in circulation after IP injection.

mice [3] = experiment: Hepatic NAD+ levels in mice after oral administration; type: in vivo
Description: 8 week-old C57BI/6NTac mice were orally gavaged with either saline (as vehicle), NR (500 mg/kg) or NRH (500 mg/kg). After 1 hour, liver, skeletal muscle and kidney NAD levels were evaluated. All results are expressed as mean +/−SEM of n=5 mice per group. * indicates statistical difference at p<0.05 vs. vs. saline-treated mice. #indicates statistical difference at p<0.05 vs. NR treated mice.
Oral administration of NRH led to very similar results to those observed after IP administration. […] NRH was detectable in plasma 1 h after oral administration. In contrast, NR levels were undetectable at 1 h after NR administration.

INS1-cells = experiment: NAD+ levels in INS1-cells after NRH treatment; type: cell-based
[4] = Description: NR degradation to NAM has been proposed as a limitation for its pharmacological efficacy. To evaluate whether NRH was also susceptible to degradation to NAM, we spiked NRH or NR in isolated mouse plasma. […] We also tested the stability of NRH in other matrixes. […] Finally, we also certified NRH stability in water (pH=7, at room temperature) for 48 h.
INS-1E cells [5] = experiment: Oxidative stress (H2O2)-induced pancreatic β-cell death, cell viability; type: cell-based; details: H2O2 0.4 mM, 24 hours, NRH 0.1 mM
Description: INS-1E cells were treated with hydrogen peroxide (H2O2; 0.4 mM) for 24 hrs in the presence or absence of NRH (0.1 mM). PBS was used as vehicle for NRH. After 24 hrs, cell viability was evaluated by lumiscence using a commercial kit (Cell Title-Glow; Promega). All results are expressed as mean+/−SEM of n=5 experiments. * indicates P<0.05 vs. the respective vehicle treated group.
INS-1E cells were treated with hydrogen peroxide (H2O2; 0.4 mM) for 24 hours in the presence or absence of NRH (0.1 mM). PBS was used as vehicle for NRH. After 24 hours, cell viability was evaluated by luminescence using a commercial kit (Cell Title-Glow; Promega).

NC(=O)C1=CN([C@@H]2O[C@H](CO)[C@@H](O)[C@H]2O)C=CC1 [NRH]
Intracellular detection of NRH and NMNH (AML12 cells; 5 minutes after treatment): could be detected
Increase in intracellular NR and NMN (AML12 cells; after NRH treatment, vs NR treatment): greater than that triggered by NR itself
Capacity as extracellular NAD+ precursor under ENT blockage (AML12 cells; in the presence of S-(4-nitrobenzyl)-6-thioinosine (NBTI)): largely lost its capacity
Generation of NMNH, NADH and NAD+ from NRH upon inhibition of AK (AML12 cells; metabolomic analyses): fully blunted
Dependence of NAD+ increase on NAMPT (AML12 cells; with FK866, a NAMPT inhibitor): NAMPT-independent
Cell viability under Interleukin 1 b (INS-1E cells [1]): protects against inflammatory citokyne-induced pancreatic β-cell death
NAD+ levels in kidney (mice [2]): increased NAD+ levels
NAD+ levels in liver (mice [2]): increased NAD+ levels
NAD+ levels in muscle (mice [2]): increased NAD+ levels
Effect on hepatic NAD+ levels compared with NR (mice [3]): more potent effect on hepatic NAD+ levels than NR
NAD+ levels (INS1-cells): highly elevated
Degradation to NAM in FBS supplemented media [4]: did not degrade to NAM
Cell viability under hydrogen peroxide (INS-1E cells [5]): protects against oxidative stress-induced pancreatic β-cell death
